Experimental findings from patent US20080021217A1, “HETEROCYCLIC INHIBITORS OF RHO KINASE” (priority 2006, published 2008) are described below.

In assay [1] the target is T1, recombinant N-terminal GST-tagged human Rho kinase 1 (ROCK1, amino acids 1-535) (Homo sapiens, UniProt Q13464).
T1 construct: ROCK1, amino acids 1-535, Invitrogen Inc., cat. #PV-3691; GST (N); purchased Invitrogen Inc. PV-3691
As to the kind of experiment: In vitro Rho kinase assay (luciferase-based ATP consumption), ROCK1. It is filed as biochemical. The procedure:
(§1) Rho kinase biochemical assays described below depend on firefly luciferase-based, indirect measurement of total ATP consumption by the kinase following incubation with substrate and ATP. 25 μl of Rho kinase assay buffer (20 mM Tris-HCL [pH 7.5], 1 mM MgCl2, 0.4 mM CaCl2, 0.15 mM EGTA, 0.1 mg/ml bovine serum albumin) containing 0.82 μg/ml of recombinant N-terminal GST-tagged human Rho kinase 1 (ROCK1, amino acids 1-535, Invitrogen Inc., cat. #PV-3691) or recombinant N-terminal GST-tagged human Rho kinase 2 (ROCK2, amino acids 1-552, Invitrogen Inc., cat #PV3759), 100 μg/ml S6 peptide substrate (related to amino acids 218-249 of the human 40S ribosomal protein S6, and suitable for ROCK1 or ROCK2, e.g. Upstate/Millipore Inc., cat #12-420), and 3 µM ATP are dispensed to wells of a 384 multi-well opaque plate. The plate is centrifuged for 30 seconds at approximately 200×g. 240 nl of test compound in DMSO is dispensed to each well by passive pin transfer. The lag phase of this in vitro kinase reaction permits addition of compounds soon after the reaction initiates. The reaction is allowed to incubate at 30° C. for 2 hours. The assay plates are sealed and maintained in a humidified environment. After 2 hours, 25 μl of easyLite protein kinase assay reagent (Perkin-Elmer, Inc.) is dispensed. After an additional 10 minute incubation at room temperature (about 22° C.), luminescence activity is measured on a Molecular Devices Analyst multi-mode plate reader or other suitable plate reader. Kinase inhibition results in less ATP consumption, and therefore increased luminescence signal. Negative control activity is measured with DMSO lacking any test compound. The positive control is 2-methyl-1-(4-methylisoquinolin-5-ylsulfonyl)perhydro-1,4-diazepine hydrochloride (aka H-1152P, HCl salt). Efficacy is measured as a percentage of positive control activity. […] In some cases, kinase reactions and compound testing are performed in 1536 multi-well plates under similar conditions, with assay volumes appropriately scaled. The designated NT means the cited example was not tested.

For assay [2], the target named is T2, recombinant N-terminal GST-tagged human Rho kinase 2 (ROCK2, amino acids 1-552) (Homo sapiens, UniProt O75116).
T2 construct: ROCK2, amino acids 1-552, Invitrogen Inc., cat #PV3759; GST (N); purchased Invitrogen Inc. PV3759
T2 sequence (O75116 1-552): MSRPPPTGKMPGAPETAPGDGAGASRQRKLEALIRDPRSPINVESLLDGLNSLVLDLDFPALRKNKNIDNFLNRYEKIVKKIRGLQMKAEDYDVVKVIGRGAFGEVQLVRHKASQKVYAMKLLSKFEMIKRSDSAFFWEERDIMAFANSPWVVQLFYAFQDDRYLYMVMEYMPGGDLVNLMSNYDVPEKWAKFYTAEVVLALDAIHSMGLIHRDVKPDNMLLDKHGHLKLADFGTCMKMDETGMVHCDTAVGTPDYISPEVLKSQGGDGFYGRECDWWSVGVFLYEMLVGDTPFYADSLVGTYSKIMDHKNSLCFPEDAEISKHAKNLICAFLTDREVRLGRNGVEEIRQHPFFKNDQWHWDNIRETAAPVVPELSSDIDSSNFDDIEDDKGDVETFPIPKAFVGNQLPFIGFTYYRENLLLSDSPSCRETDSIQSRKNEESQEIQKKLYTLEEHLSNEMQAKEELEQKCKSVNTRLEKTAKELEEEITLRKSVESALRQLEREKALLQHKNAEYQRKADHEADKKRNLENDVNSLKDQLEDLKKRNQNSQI
As to the kind of experiment: In vitro Rho kinase assay (luciferase-based ATP consumption), ROCK2. It is filed as biochemical. The procedure:
as §1

Assay [3] relates to lasered (hypertensive) eyes of conscious cynomolgus monkeys. Put plainly: Acute IOP response in lasered (hypertensive) eyes of conscious cynomolgus monkeys. It is filed as in vivo. The following applies: instilled in right eyes, IOP at 1, 3 and 6 hours; for Peak % Reduction in IOP vs. Control at 0.3%: compound at 0.3%; for Peak % Reduction in IOP vs. Control at 1.0%: compound at 1.0%. The text has this: Acute IOP Response in Lasered (Hypertensive) Eyes of Conscious Cynomolgus Monkeys
Intraocular pressure (IOP) can be determined with an Alcon Pneumatonometer after light corneal anesthesia with 0.1% proparacaine. Eyes are washed with saline after each measurement. After a baseline IOP measurement, test compound is instilled in one […] aliquot to the right eyes only of nine cynomolgus monkeys. Vehicle is instilled in the right eyes of six additional animals. Subsequent IOP measurements are taken at 1, 3, and 6 hours, and peak reduction in IOP is reported below in Table 2 as percent of IOP lowering versus the control for each of the given concentrations of compound.
A more detailed description of the assay used herein may be found in May et al., “Evaluation of the Ocular Hypotensive Response of Serotonin 5-HT1A and 5-HT2 Receptor Ligands in Conscious Ocular Hypertensive Cynomolgus Monkeys,” J. of Pharmacology and Experimental Therapeutics, vol. 306(1), pp. 301-309 (2003), the disclosure of which is hereby incorporated by reference as if written herein in its entirety.

Structures can show the parent of a compound that is named as a salt. Some results are limits rather than exact numbers.

T1 sequence (Q13464 1-535): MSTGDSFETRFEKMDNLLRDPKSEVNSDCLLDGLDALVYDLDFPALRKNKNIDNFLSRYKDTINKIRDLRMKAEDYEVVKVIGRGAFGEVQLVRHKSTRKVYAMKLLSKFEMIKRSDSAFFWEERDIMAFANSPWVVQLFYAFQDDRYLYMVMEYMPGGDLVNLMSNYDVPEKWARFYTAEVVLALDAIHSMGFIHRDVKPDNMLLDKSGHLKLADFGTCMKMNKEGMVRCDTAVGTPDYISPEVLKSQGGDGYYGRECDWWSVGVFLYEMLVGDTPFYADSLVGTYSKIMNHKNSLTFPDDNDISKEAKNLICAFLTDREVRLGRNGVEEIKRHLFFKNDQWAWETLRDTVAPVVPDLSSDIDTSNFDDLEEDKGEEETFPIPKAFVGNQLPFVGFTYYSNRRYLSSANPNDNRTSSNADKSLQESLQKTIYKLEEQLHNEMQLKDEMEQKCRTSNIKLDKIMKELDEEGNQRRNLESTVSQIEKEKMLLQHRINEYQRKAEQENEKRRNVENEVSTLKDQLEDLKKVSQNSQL

With `Cc1cccc(C(=O)NCc2nc(-c3ccncc3)n[nH]2)c1O` [Example 22, 2-hydroxy-3-methyl-N-((3-(pyridin-4-yl)-1H-1,2,4-triazol-5-yl)methyl)benzamide], the IC50 in assay [1] and in assay [2] was below 5 µM in each case. The “Peak % Reduction in IOP vs. Control at 0.3%” value (“Peak % Reduction … at 0.3%” for short) in assay [3] is on record as 11.1%.

Consider `O=C(NCc1nc(-c2ccncc2)n[nH]1)c1ccc(O)cc1O` [Example 15, 2,4-dihydroxy-N-((3-(pyridin-4-yl)-1H-1,2,4-triazol-5-yl)methyl)benzamide], for which the IC50 in assay [1] was below 5 µM. Besides, in assay [2], the IC50 was below 5 µM. Also, in assay [3], the “Peak % Reduction … at 0.3%” value is given as 14.9% and the “Peak % Reduction in IOP vs. Control at 1.0%” value amounted to 9.8%.

In the case of `O=C(NCc1nc(-c2ccncc2)n[nH]1)c1ccc(O)cc1O` [Ex. 15 HCl, 2,4-dihydroxy-N-((3-(pyridin-4-yl)-1H-1,2,4-triazol-5-yl)methyl)benzamide], the “Peak % Reduction in IOP vs. Control at 1.0%” value in assay [3] came to 8.8%.

With `Cc1cccc(C(=O)NCc2nc(-c3ccncc3)c[nH]2)c1O` [Example 7, 2-hydroxy-3-methyl-N-((4-(pyridin-4-yl)-1H-imidazol-2-yl)methyl)benzamide], the IC50 in assay [1] and in assay [2] was below 5 µM in each case. Moreover, the “Peak % Reduction … at 0.3%” value in assay [3] is 11.0%.

In the case of `CC(=O)Oc1ccc(C(=O)NCc2nc(-c3ccncc3)n[nH]2)c(O)c1` [Example 36, 3-Hydroxy-4-((3-(pyridin-4-yl)-1H-1,2,4-triazol-5-yl)methylcarbamoyl)phenyl acetate], the IC50 in assay [1] and in assay [2] was below 5 µM in each case. Besides, the “Peak % Reduction … at 0.3%” value in assay [3] is reported as 8.4%.

For the compound `COc1cccc(C(=O)NCc2nc(-c3ccncc3)no2)c1` [Example 3, 3-methoxy-N-((3-(pyridin-4-yl)-1,2,4-oxadiazol-5-yl)methyl)benzamide], the IC50 in assay [1] and in assay [2] was above 5 µM throughout.

As to `CC(C)C(=O)Oc1ccc(C(=O)NCc2nc(-c3ccncc3)n[nH]2)c(O)c1` [Example 35, 3-Hydroxy-4-((3-(pyridin-4-yl)-1H-1,2,4-triazol-5-yl)methylcarbamoyl)phenyl isobutyrate], the IC50 in assay [1] and in assay [2] was below 5 µM in each case. The “Peak % Reduction … at 0.3%” value in assay [3] stood at 8.6%.

On to `O=C(NCc1nc(-c2ccncc2)n[nH]1)c1ccccc1O` [Example 25, 2-hydroxy-N-((3-(pyridin-4-yl)-1H-1,2,4-triazol-5-yl)methyl)benzamide], for which the IC50 in assay [1] and in assay [2] was below 5 µM in each case.

For `O=C(NCc1nc(-c2ccncc2)c[nH]1)c1cccs1` [Example 5, N-((4-(pyridin-4-yl)-1H-imidazol-2-yl)methyl)thiophene-2-carboxamide], the IC50 in assay [1] and in assay [2] was below 5 µM throughout.

`O=C(NCc1c[nH]c(-c2ccncc2)n1)c1ccc(O)cc1O` [Example 12, 2,4-dihydroxy-N-((2-(pyridin-4-yl)-1H-imidazol-4-yl)methyl)benzamide]: the 50% inhibitory concentration (IC50) in assay [1] and in assay [2] was below 5 µM each time.

Consider `CC(C)(C)C(=O)Oc1ccc(C(=O)NCc2nc(-c3ccncc3)n[nH]2)c(OC(=O)C(C)(C)C)c1` [Example 37, 4-((3-(Pyridin-4-yl)-1H-1,2,4-triazol-5-yl)methylcarbamoyl)-1,3-phenylene bis(2,2-dimethylpropanoate)], for which the IC50 in assay [1] and in assay [2] was above 5 µM in each case.

`Cc1cccc(C(=O)NCc2c[nH]c(-c3ccncc3)n2)c1O` [Example 13, 2-hydroxy-3-methyl-N-((2-(pyridin-4-yl)-1H-imidazol-4-yl)methyl)benzamide]: the IC50 in assay [1] and in assay [2] was above 5 µM each time.

Take `O=C(NCc1nc(-c2ccncc2)no1)c1cccs1` [Example 2, N-((3-(pyridin-4-yl)-1,2,4-oxadiazol-5-yl)methyl)thiophene-2-carboxamide]: the IC50 in assay [1] and in assay [2] was above 5 µM in each case.

Consider `NC(=O)c1cc(-c2ccncc2)n[nH]1` [Example 11, 3-(pyridin-4-yl)-1H-pyrazole-5-carboxamide], for which the IC50 in assay [1] and in assay [2] was above 5 µM each time.

As to `COc1ccc(C(=O)NCc2nc(-c3ccncc3)n[nH]2)cc1C` [Example 40, 4-Methoxy-3-methyl-N-((3-(pyridin-4-yl)-1H-1,2,4-triazol-5-yl)methyl)benzamide], the IC50 in assay [1] and in assay [2] was above 5 µM throughout.

Take `O=C(NCc1nc(-c2c[nH]c3ncccc23)cs1)c1cccs1` [Example 75, N-((4-(1H-pyrrolo [2,3-b]pyridin-3-yl)thiazol-2-yl)methyl)thiophene-2-carboxamide]: the IC50 in assay [1] and in assay [2] was below 5 µM throughout.

Regarding `Cc1c(O)ccc(C(=O)NCc2nc(-c3ccncc3)n[nH]2)c1O` [Example 46, 2,4-Dihydroxy-3-methyl-N-((3-(pyridin-4-yl)-1H-1,2,4-triazol-5-yl)methyl)benzamide], the IC50 in assay [1] and in assay [2] was below 5 µM throughout.

On to `c1ccc(COc2ccc(CNCc3nc(-c4ccncc4)n[nH]3)cc2)cc1` [Example 56, N-(4-(Benzyloxy)benzyl)-1-(3-(pyridin-4-yl)-1H-1,2,4-triazol-5-yl)methanamine], for which the IC50 in assay [1] and in assay [2] was above 5 µM in each case.

`CN(Cc1nc(-c2ccncc2)n[nH]1)C(=O)c1ccc(O)cc1O` [Example 58, 2,4-Dihydroxy-N-methyl-N-((3-(pyridin-4-yl)-1H-1,2,4-triazol-5-yl)methyl)benzamide]: the IC50 in assay [1] and in assay [2] was above 5 µM each time.

Consider `O=C(NCc1nc(-c2ccncc2)c[nH]1)c1ccc(O)cc1O` [Example 6, 2,4-dihydroxy-N-((4-(pyridin-4-yl)-1H-imidazol-2-yl)methyl)benzamide], for which the IC50 in assay [1] and in assay [2] was below 5 µM in each case. The “Peak % Reduction … at 0.3%” value in assay [3] is listed as 5.8%.

With `c1ccc2c(NCc3nc(-c4ccncc4)n[nH]3)n[nH]c2c1` [Example 59, N-((3-(Pyridin-4-yl)-1H-1,2,4-triazol-5-yl)methyl)-1H-indazol-3-amine], the IC50 in assay [1] and in assay [2] was above 5 µM in each case.

As to `CS(=O)(=O)Nc1cccc(C(=O)NCc2nc(-c3ccncc3)n[nH]2)c1` [Example 21, 3-(methylsulfonamido)-N-((3-(pyridin-4-yl)-1H-1,2,4-triazol-5-yl)methyl)benzamide], the IC50 in assay [1] and in assay [2] was above 5 µM in each case.

For `Cc1c(Cl)ccc(S(=O)(=O)NCc2nc(-c3ccncc3)n[nH]2)c1O` [Example 32, 4-Chloro-2-hydroxy-3-methyl-N-((3-(pyridin-4-yl)-1H-1,2,4-triazol-5-yl)methyl)benzenesulfonamide], the IC50 in assay [1] and in assay [2] was above 5 µM each time.

For orientation: IC50 means the concentration that inhibits the measured activity by half.
